Results: patent publication US9771370B2, “Compounds for the inhibition of indoleamine-2,3-dioxygenase” (Merck Patent GmbH, priority 2014, dated 2017)

Molecular target: Recombinant human IDO (Homo sapiens, UniProt P14902)
Test: Bridge-IT tryptophan fluorescence assay of human IDO-1 inhibition
Assay type: biochemical
Conditions: recombinant human IDO 7.5 nM, L-tryptophan
Summary of the method: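 Two protocol variants: 100 μM L-Trp for 90 min at 37 °C, or 30 min enzyme–compound pre-incubation at 25 °C, then 50 μM L-Trp for 60 min at 25 °C. Reaction stopped in Bridge-IT solution A for 30 min at 30 °C.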

Sequence of Recombinant human IDO (P14902 whole entry): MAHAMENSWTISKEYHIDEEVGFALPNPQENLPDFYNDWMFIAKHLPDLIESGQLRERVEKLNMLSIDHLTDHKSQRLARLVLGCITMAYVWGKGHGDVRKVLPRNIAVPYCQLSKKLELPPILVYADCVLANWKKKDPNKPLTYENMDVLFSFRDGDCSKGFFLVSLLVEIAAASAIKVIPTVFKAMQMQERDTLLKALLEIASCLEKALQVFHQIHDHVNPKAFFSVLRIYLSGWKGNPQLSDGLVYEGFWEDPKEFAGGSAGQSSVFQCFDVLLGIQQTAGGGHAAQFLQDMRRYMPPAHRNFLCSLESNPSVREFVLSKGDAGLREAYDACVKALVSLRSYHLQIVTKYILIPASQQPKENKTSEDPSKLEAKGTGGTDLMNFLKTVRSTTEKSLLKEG

Compound | IC50
OCC1CCC(F)(CCC2c3c(F)cccc3-c3cncn32)CC1 (single isomer, unassigned) [Compound 84a, [4-fluoro-4-[2-[6-fluoro-5H-imidazo[4,3-a]isoindol-5-yl]ethyl]cyclohexyl]methanol] | > 1 µM
OCC1CCC(F)(CCC2c3c(F)cccc3-c3cncn32)CC1 (single isomer, unassigned) [Compound 84b, [4-fluoro-4-[2-[6-fluoro-5H-imidazo[4,3-a]isoindol-5-yl]ethyl]cyclohexyl]methanol] | > 1 µM
OCC1CCC(F)(CCC2c3c(F)cccc3-c3cncn32)CC1 (single isomer, unassigned) [Compound 84c, [4-fluoro-4-[2-[6-fluoro-5H-imidazo[4,3-a]isoindol-5-yl]ethyl]cyclohexyl]methanol] | < 0.1 µM
OCC1CCC(F)(CCC2c3c(F)cccc3-c3cncn32)CC1 (single isomer, unassigned) [Compound 84d, [4-fluoro-4-[2-[6-fluoro-5H-imidazo[4,3-a]isoindol-5-yl]ethyl]cyclohexyl]methanol] | < 0.1 µM
OC(CC1c2ncccc2-c2cncn21)C1(F)CCC(F)(F)CC1 (single isomer, unassigned) [Compound 87a, 2-[4,6,9-triazatricyclo[6.4.0.0^[2,6]]dodeca-1(8),2,4,9,11-pentaen-7-yl]-1-(1,4,4-trifluorocyclohexyl)ethan-1-ol] | > 1 µM
OC(CC1c2ncccc2-c2cncn21)C1(F)CCC(F)(F)CC1 (single isomer, unassigned) [Compound 87b, 2-[4,6,9-triazatricyclo[6.4.0.0^[2,6]]dodeca-1(8),2,4,9,11-pentaen-7-yl]-1-(1,4,4-trifluorocyclohexyl)ethan-1-ol] | > 1 µM
OC(CC1c2ncccc2-c2cncn21)C1(F)CCC(F)(F)CC1 (single isomer, unassigned) [Compound 87c, 2-[4,6,9-triazatricyclo[6.4.0.0^[2,6]]dodeca-1(8),2,4,9,11-pentaen-7-yl]-1-(1,4,4-trifluorocyclohexyl)ethan-1-ol] | > 1 µM
OC(CC1c2ncccc2-c2cncn21)C1(F)CCC(F)(F)CC1 (single isomer, unassigned) [Compound 87d, 2-[4,6,9-triazatricyclo[6.4.0.0^[2,6]]dodeca-1(8),2,4,9,11-pentaen-7-yl]-1-(1,4,4-trifluorocyclohexyl)ethan-1-ol] | 0.1 to 1 µM
CC(C)(C)C(=O)N1CCC(C(O)CC2c3ncccc3-c3cncn32)CC1 (single isomer, unassigned) [Compound 88a, 1-[4-[1-hydroxy-2-[4,6,9-triazatricyclo[6.4.0.0^[2,6]]dodeca-1(8),2,4,9,11-pentaen-7-yl]ethyl]piperidin-1-yl]-2,2-dimethylpropan-1-one] | > 1 µM
CC(C)(C)C(=O)N1CCC(C(O)CC2c3ncccc3-c3cncn32)CC1 (single isomer, unassigned) [Compound 88b, 1-[4-[1-hydroxy-2-[4,6,9-triazatricyclo[6.4.0.0^[2,6]]dodeca-1(8),2,4,9,11-pentaen-7-yl]ethyl]piperidin-1-yl]-2,2-dimethylpropan-1-one] | > 1 µM
CC(C)(C)C(=O)N1CCC(C(O)CC2c3ncccc3-c3cncn32)CC1 (single isomer, unassigned) [Compound 88c, 1-[4-[1-hydroxy-2-[4,6,9-triazatricyclo[6.4.0.0^[2,6]]dodeca-1(8),2,4,9,11-pentaen-7-yl]ethyl]piperidin-1-yl]-2,2-dimethylpropan-1-one] | > 1 µM
CC(C)(C)C(=O)N1CCC(C(O)CC2c3ncccc3-c3cncn32)CC1 (single isomer, unassigned) [Compound 88d, 1-[4-[1-hydroxy-2-[4,6,9-triazatricyclo[6.4.0.0^[2,6]]dodeca-1(8),2,4,9,11-pentaen-7-yl]ethyl]piperidin-1-yl]-2,2-dimethylpropan-1-one] | > 1 µM
CC(C)[C@H](N)C(=O)N1CCC(F)(CCC2c3ccccc3-c3cncn32)CC1 (single isomer, unassigned) [Compound 89a] | > 1 µM
CC(C)[C@H](N)C(=O)N1CCC(F)(CCC2c3ccccc3-c3cncn32)CC1 (single isomer, unassigned) [Compound 89b] | > 1 µM
FC1(CCC2c3c(Cl)cccc3-c3cncn32)CCC2(CC1)CC2 (single isomer, unassigned) [Compound 91a, 6-chloro-5-(2-[6-fluorospiro[2.5]octan-6-yl]ethyl)-5H-imidazo[4,3-a]isoindole] | > 1 µM
FC1(CCC2c3c(Cl)cccc3-c3cncn32)CCC2(CC1)CC2 (single isomer, unassigned) [Compound 91b, 6-chloro-5-(2-[6-fluorospiro[2.5]octan-6-yl]ethyl)-5H-imidazo[4,3-a]isoindole] | > 1 µM
OC(CC1c2ncccc2-c2cncn21)C1CCOCC1 (single isomer, unassigned) [Compound 92a, 1-(oxan-4-yl)-2-[4,6,9-triazatricyclo[6.4.0.0^[2,6]]dodeca-1(8),2,4,9,11-pentaen-7-yl]ethan-1-ol] | > 1 µM
OC(CC1c2ncccc2-c2cncn21)C1CCOCC1 (single isomer, unassigned) [Compound 92b, 1-(oxan-4-yl)-2-[4,6,9-triazatricyclo[6.4.0.0^[2,6]]dodeca-1(8),2,4,9,11-pentaen-7-yl]ethan-1-ol] | > 1 µM
OC(CC1c2ncccc2-c2cncn21)C1CCOCC1 (single isomer, unassigned) [Compound 92c, 1-(oxan-4-yl)-2-[4,6,9-triazatricyclo[6.4.0.0^[2,6]]dodeca-1(8),2,4,9,11-pentaen-7-yl]ethan-1-ol] | > 1 µM
OC(CC1c2ncccc2-c2cncn21)C1CCOCC1 (single isomer, unassigned) [Compound 92d, 1-(oxan-4-yl)-2-[4,6,9-triazatricyclo[6.4.0.0^[2,6]]dodeca-1(8),2,4,9,11-pentaen-7-yl]ethan-1-ol] | > 1 µM
FC1(CCC2c3ncccc3-c3cncn32)CCOCC1 (single isomer, unassigned) [Compound 93a, 7-[2-(4-fluorooxan-4-yl)ethyl]-4,6,9-triazatricyclo[6.4.0.0^[2,6]]dodeca-1(8),2,4,9,11-pentaene] | > 1 µM
FC1(CCC2c3ncccc3-c3cncn32)CCOCC1 (single isomer, unassigned) [Compound 93b, 7-[2-(4-fluorooxan-4-yl)ethyl]-4,6,9-triazatricyclo[6.4.0.0^[2,6]]dodeca-1(8),2,4,9,11-pentaene] | > 1 µM
FC1(CCC2c3ccccc3-c3cncn32)CCOCC1 (single isomer, unassigned) [Compound 94a, 5-[2-(4-fluorooxan-4-yl)ethyl]-5H-imidazo[4,3-a]isoindole] | > 1 µM
FC1(CCC2c3ccccc3-c3cncn32)CCOCC1 (single isomer, unassigned) [Compound 94b, 5-[2-(4-fluorooxan-4-yl)ethyl]-5H-imidazo[4,3-a]isoindole] | < 0.1 µM

The next lines start with the values.

IC50 | Compound
> 1 µM | Fc1cccc2c1C(CCC1(F)CCOCC1)n1cncc1-2 (single isomer, unassigned) [Compound 95a, 6-fluoro-5-[2-(4-fluorooxan-4-yl)ethyl]-5H-imidazo[4,3-a]isoindole]
0.1 to 1 µM | Fc1cccc2c1C(CCC1(F)CCOCC1)n1cncc1-2 (single isomer, unassigned) [Compound 95b, 6-fluoro-5-[2-(4-fluorooxan-4-yl)ethyl]-5H-imidazo[4,3-a]isoindole]
> 1 µM | FC1(CCC2c3c(Cl)cccc3-c3cncn32)CCOCC1 (single isomer, unassigned) [Compound 96a, 6-chloro-5-[2-(4-fluorooxan-4-yl)ethyl]-5H-imidazo[4,3-a]isoindole]
0.1 to 1 µM | FC1(CCC2c3c(Cl)cccc3-c3cncn32)CCOCC1 (single isomer, unassigned) [Compound 96b, 6-chloro-5-[2-(4-fluorooxan-4-yl)ethyl]-5H-imidazo[4,3-a]isoindole]
> 1 µM | FC(CC1c2ncccc2-c2cncn21)C1CCCCC1 (single isomer, unassigned) [Compound 97a, 7-[2-cyclohexyl-2-fluoroethyl]-4,6,9-triazatricyclo[6.4.0.0^[2,6]]dodeca-1(8),2,4,9,11-pentaene]
0.1 to 1 µM | FC(CC1c2ncccc2-c2cncn21)C1CCCCC1 (single isomer, unassigned) [Compound 97b, 7-[2-cyclohexyl-2-fluoroethyl]-4,6,9-triazatricyclo[6.4.0.0^[2,6]]dodeca-1(8),2,4,9,11-pentaene]
0.1 to 1 µM | FC(CC1c2ncccc2-c2cncn21)C1CCCCC1 (single isomer, unassigned) [Compound 97c, 7-[2-cyclohexyl-2-fluoroethyl]-4,6,9-triazatricyclo[6.4.0.0^[2,6]]dodeca-1(8),2,4,9,11-pentaene]
> 1 µM | FC(CC1c2ncccc2-c2cncn21)C1CCCCC1 (single isomer, unassigned) [Compound 97d, 7-[2-cyclohexyl-2-fluoroethyl]-4,6,9-triazatricyclo[6.4.0.0^[2,6]]dodeca-1(8),2,4,9,11-pentaene]
0.1 to 1 µM | Fc1cccc2c1C(CC(F)C1CCCCC1)n1cncc1-2 (single isomer, unassigned) [Compound 98a, 5-[2-cyclohexyl-2-fluoroethyl]-6-fluoro-5H-imidazo[4,3-a]isoindole]
< 0.1 µM | Fc1cccc2c1C(CC(F)C1CCCCC1)n1cncc1-2 (single isomer, unassigned) [Compound 98b, 5-[2-cyclohexyl-2-fluoroethyl]-6-fluoro-5H-imidazo[4,3-a]isoindole]
> 1 µM | NC(=O)C1CCC(F)(CCC2c3c(Cl)cccc3-c3cncn32)CC1 (single isomer, unassigned) [Compound 99a, 4-[2-[6-chloro-5H-imidazo[4,3-a]isoindol-5-yl]ethyl]-4-fluorocyclohexane-1-carboxamide]
0.1 to 1 µM | NC(=O)C1CCC(F)(CCC2c3c(Cl)cccc3-c3cncn32)CC1 (single isomer, unassigned) [Compound 99b, 4-[2-[6-chloro-5H-imidazo[4,3-a]isoindol-5-yl]ethyl]-4-fluorocyclohexane-1-carboxamide]
